The text below walks through data of PubChem BioAssay AID624090 (The Scripps Research Institute Molecular Screening Center, 2012).

This assay has as its target AmpC beta-lactamase (Escherichia coli). Nature of the assay: E. coli AmpC beta-lactamase inhibitors, broad-spectrum VIM-2 effort – biochemical, absorbance, probe candidates and analogs, selectivity assay for nonselective VIM-2 inhibitor project, late-stage follow-up (AID 624090). The following applies: recombinant AmpC, nitrocefin hydrolysis.

Active and inactive are the calls of the source.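 The calls were made as follows: active = AmpC beta-lactamase inhibition with IC50 of 10 µM or lower; inactive = the rest.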

As to `CN1CCN(NC(=O)CN2C(=O)/C(=C/c3c(Cl)cccc3Cl)SC2=S)CC1`, the IC50 (usually the concentration at which inhibition is half-maximal) was > 60 µM (inactive). To `CN1CCN(NC(=O)CN2C(=O)/C(=C/c3c(Cl)ccc(Cl)c3Cl)SC2=S)CC1` belongs > 60 µM (inactive).
